Like-named read-outs stand apart in the source and are kept apart here.
Assays:
[1] = test system: human primary astrocytes (HA cells); test: ATP-Glo cell viability on human astrocytes; type: cell-based
Description: Primary human astrocytes (HA cells) were expanded in AM Medium (both from ScienCell Research Laboratories, Carlsbad Calif.) according to the manufacturer's instructions.

[2] = test system: quiescent TG1 glioblastoma stem cells; test: ATP-Glo (Cell Titer Glo) cell viability, dose/response, quiescent TG1 cells; type: cell-based, human; settings: for EC50: Homo sapiens, quiescent TG1 cells, ATP-Glo, read-out: concentration leading to 50% of effect (EC50); for EC50 / effect on survival of quiescent TG1 cells (words) / cytotoxicity to quiescent TG1 cells: 24 h; for effect on survival of quiescent TG1 cells (words): own conditioned medium; for cytotoxicity to quiescent TG1 cells: 10 μM
Protocol: The TG1 cells were put into quiescence by keeping the cells in culture without changing the medium from 9 to 16 days. The state of quiescence was verified by non-incorporation of nucleotides into the DNA of the cells (see example 9).
The quiescent cells were put back in 1 mL of conditioned medium, dissociated mechanically by pipetting up and down 100 times with a P1000 micropipette preset to 400 μl and counted with Trypan Blue, after dilution in conditioned medium, to obtain a final suspension of 8.10^5 cells/mL.
(§1) 50 μl of solution containing cells was deposited per well in a 96-well plate (Greiner #655090).
(§2) The test compounds, in solution of 100% of DMSO were diluted in culture medium: in the absence of DMSO (medium 0% DMSO) or in the presence of 2% of DMSO (medium 2% DMSO) at concentrations of 200 μM, 100 μM, 80 μM, 60 μM, 40 μM, 20 μM, 10 μM and 2 μM. For all these dilutions the final concentration in DMSO was 2% (see Table 1 below; volumes shown make it possible to construct dose/response curves, in triplicate, for 1 compound on a 96-well plate—FIG. 1)
50 μL of solution of compound was added at the concentrations specified above to 50 μL of cells in the plate (FIG. 1) (Final concentration of compounds in contact with the cells: 100 μM, 50 μM, 40 μM, 30 μM, 20 μM, 10 μM, 5 μM, 1 μM (in 1% of final DMSO). Final concentration of positive control: 50 μM in 1% of final DMSO. Final concentration of negative control: 1% final DMSO).
The cells were incubated for 23 to 24 hours at 37° C. in an incubator in the presence of 5% CO2 (under humid atmosphere at 95% provided by a reservoir filled with distilled water).
(§3) The test of cell viability was carried out using the Cell Titer Glo kit (Promega #G7571). After thawing of the Cell Titer Glo reagent (1 Buffer vial+1 Substrate vial per plate) protected from the light, the contents of the Buffer vial were transferred to the Substrate vial. 100 μl of Cell Titer Glo reagent was deposited on the cells treated with the compounds.
(§4) The results, which were given for each well in strokes per second (sps), were converted to percentage cell survival relative to the control 1% of DMSO, which was fixed at 100%.
(§5) The EC50 was determined as the concentration that gives 50% of the response.
(§6) Glioblastoma (WHO grade IV glioma) stem cells (TG1, TG16 and OB1) were derived from tumor samples of 3 patients at Sainte Anne Hospital (Paris, France), as previously described (48) and expanded as neurosphere cultures. In continuously proliferating cultures, neurospheres were mechanically dissociated into a single-cell suspension twice a week with 90% renewal of their culture medium. Quiescent glioblastoma stem cells were obtained by non-renewal of the culture medium for 9-16 days following cell seeding. The non-proliferating state was assessed by decreased ability of the cells to incorporate EdU (5-ethynyl-2′-deoxyuridine) using the Click-iT™ EdU Flow Cytometry Assay Kit (Invitrogen, France) according to the manufacturer's instructions. […]
(§7) Confirmed hit compounds from the primary and secondary screens were purchased from Prestwick Chemical and dissolved in DMSO to obtain 10 mM concentrated stock solutions. Hit compound validation was obtained through dose-response curves on the viability of TG1 glioblastoma stem cells under the same experimental conditions (cell density, treatment duration) as described for the primary and secondary screens. Each compound was tested in triplicate in at least three independent experiments on proliferating and quiescent glioblastoma stem TG1 cells.
(§8) The EC50 value was determined for each compound by fitting the data points according to the following equation: […]
(§9) where y represents the expected response (expressed as a percentage of cell viability), x is the chemical compound concentration, Smax and Smin are the maximum and minimum viability responses recorded, respectively, and n is the Hill coefficient. Curve fitting was performed using the Microsoft Excel Solver component.

[3] = test system: HEK293 cells; test: ATP-Glo cell viability on HEK 293 cells
Protocol: (§10) The cells were passed 2 or 3 days before the experiment. On that very day, the cells are detached with trypsin according to the above protocol, then centrifuged for 10 minutes at 800 rpm.
(§11) The supernatant was removed and the cells were resuspended in culture medium, then counted and finally diluted to give a final suspension of 10^6 cells/mL.
(§12) 7 mL of cellular suspension at 10^6 cells/mL was prepared for each test compound.
Human Embryonic Kidney 293 cells (HEK 293 cells) were expanded in Minimum Essential Medium (MEM) with 2 mM L-Glutamine, 100 UI/ml-100 μg/ml Penicillin/Streptomycin and 10% FBS.

[4] = test system: U-87 MG glioblastoma cell line; test: ATP-Glo cell viability on U-87 MG cells; settings: for cytotoxic effect on U-87 MG cells: 24 h
Protocol: as §10, §11, §12
The glioblastoma U-87 MG cell line was purchased from ATCC and expanded in Eagle's Minimum Essential Medium (EMEM) (ATCC) supplemented with 10% fetal bovine serum (FBS) (Invitrogen, France) and 1% penicillin/streptomycin (Invitrogen, France).
The pH of the medium solution was then adjusted to values varying between 7.4 and 6.0 with 1M HCl or a sodium acetate buffer (0.1 M pH=4). The culture media were placed in a CO2 cell culture incubator settled to 5% CO2 and 37° C. for 1 hour. The pH was measured again and re-adjusted to the expected values if necessary and culture media were filter-sterilized (0.22 μm filter) prior to their use. The toxicity of DDPM (10 or 100 μM) on proliferating and quiescent TG1 cells was then assessed under the same conditions as those described in the previous section. pH dependency of lead compounds was also assessed for the glioblastoma U-87 MG cell line and on normal fetal neural stem cells and primary human astrocytes in their respective culture media (adjusted to pH 7.4 or 6.2) with HCl (1M) or a sodium acetate buffer (0.1 M pH=4).

[5] = test system: proliferating TG1 glioblastoma stem cells; test: ATP-Glo (Cell Titer Glo) cell viability, dose/response, proliferating TG1 cells; type: cell-based, human; settings: for effect on survival of proliferating TG1 cells: own culture medium
Protocol: The TG1 proliferating cells correspond to cells for which medium is renewed regularly, twice weekly.
The proliferating cells were put back in 1 mL of fresh NS34 medium, dissociated mechanically by pipetting up and down 100 times with a P1000 micropipette preset to 400 μl and counted with Trypan Blue, after dilution in fresh NS34 medium, to obtain a final suspension of 6×10^5 cells/mL.
as §1, §2
50 μL of solution of compound was added at the concentrations specified above to 50 μL of cells in the plate (FIG. 1) (Final concentration of compounds in contact with the cells: 100 μM, 50 μM, 40 μM, 30 μM, 20 μM, 10 μM, 5 μM, 1 μM (in 1% of final DMSO). Final concentration of positive control: 50 μM in 1% of final DMSO. Final concentration of negative control: 1% final DMSO). […]
as §3, §4, §5, §6, §7, §8, §9

[6] = Stability of the test compounds in the culture medium (HPLC); type: physicochemical; settings: for half-life at 10 μM: 1% DMSO, 37° C., HPLC
Protocol: A mass m was weighed with an analytical balance and a volume V of DMSO was added.
The solution of the compound at 10 mM was diluted to 1/10, still in DMSO.
The latter solution was diluted to 1/100 in medium in order to obtain a final concentration of 10 μM and 1% of DMSO.
After homogenizing (2 min), 150 μl was taken and was mixed with 150 μl of acetonitrile to precipitate the proteins present in the medium, which corresponds to a dilution to ½.
The mixture was vortexed for 1 min and then centrifuged for 10 min at 15000 g.
The supernatant was again diluted to ½ with 1 volume of milliQ water and then injected in HPLC.
The same treatment was carried out at times 2 h, 4 h, 6 h and 24 h.
The solutions were analysed in HPLC using a Gilson chain equipped with a diode array detector and of an automatic injector with an injection loop of 20 μl.
10 μM solutions of Bisacodyl and DDPM were prepared in proliferating or quiescent glioblastoma stem cell culture medium in the presence of 1% DMSO. Following protein precipitation (with acetonitrile), samples were analyzed by HPLC after 0, 2, 4, 6 and 24 h of incubation at 37° C.

[7] = test system: human fetal neural stem cells (f-NSC cells); test: ATP-Glo cell viability on fetal neural stem cells; type: cell-based
[8] = test system: caspase 3/7 activity in proliferating and quiescent TG1 cells; test: Apo-ONE Homogeneous Caspase-3/7 Assay in TG1 cells; type: cell-based, human
Protocol: Proliferating (30 000 cells/well) and quiescent (40 000 cells/well) TG1 cells were suspended in freshly prepared culture medium (pH=7.3) or acidified freshly prepared culture medium (pH=6.4) and treated with increasing concentrations of the lead compounds for 24 hours. Following treatment, apoptosis was measured with the Apo-ONE Homogeneous Caspase-3/7 Assay from Promega according to the manufacturer's instructions. Staurosporine (Sigma, Aldrich) and culture medium were used as positive and negative controls, respectively.

[9] = test system: quiescent TG1 glioblastoma stem cells; test: ATP-Glo (Cell Titer Glo) cell viability, dose/response, quiescent TG1 cells; type: cell-based, human; settings: treated 24 h in freshly prepared non-conditioned medium, versus own medium
[10] = 100 μM, acidification with sodium acetate buffer, versus HCl

SMILES: CC(=O)Oc1ccc(C(c2ccc(OC(C)=O)cc2)c2ccccn2)cc1 [Compound 1, Bisacodyl]
- toxicity for HA cells [1]: does not display any toxicity
- Emax ([1]; Homo sapiens, Astrocyte, not due to cell death, read-out: maximum effect on HA cells: reduction of ATP levels): 30%
- survival of human astrocytes (HA) ([1]; concentrations above 10 μM): 60%
- EC50 [2]: 1 µM
- effect on survival of quiescent TG1 cells (words) ([2]; listed as Bisacodyl): only active on TG1 cells in quiescence
- effect on survival of quiescent TG1 cells (words) ([2]; listed as bisacodyl): more selective effects
- toxicity for HEK293 cells [3]: does not display any toxicity
- survival of HEK293 cells ([3]; 10 μM): 100%
- survival of HEK293 cells ([3]; 100 μM): 80%
- survival of U-87 MG cells ([4]; concentrations between 10 and 100 μM): 90%
- effect on survival of proliferating TG1 cells ([5]; 24 h): not on TG1 cells proliferating continuously
- half-life at 10 μM ([6]; read-out: half-life in the medium of the proliferating cells (converted)): 2 h
- half-life at 10 μM ([6]; quiescent glioblastoma stem cell culture medium (no cells), read-out: half-life in the medium of the quiescent cells (converted)): 4 h
- effect on survival / toxicity, f-NSC cells [7]: does not display any toxicity
- cell survival of f-NSC cells ([7]; concentrations of compound up to 100 μM): over 90%

SMILES: Oc1ccc(C(c2ccc(O)cc2)c2ccccn2)cc1 [Compound 2, 4,4′-(Pyridin-2-ylmethylene)diphenol]
- effect on ATP levels of human astrocytes ([1]; pH 7.4 versus 6.2, related to cell death): pH dependent reduction of ATP levels
- cytotoxicity to quiescent TG1 cells ([2]; pH values above 7): little or no effect
- cytotoxicity to quiescent TG1 cells ([2]; slightly acidic conditions (HCl)): cytotoxic
- effect on quiescent TG1 cells [2, 10]: more pronounced
- EC50 [2]: ~1 µM
- effect on survival of quiescent TG1 cells (words) [2]: effect comparable to bisacodyl
- effect on survival of quiescent TG1 cells (words) ([2]; listed as DDPM): high cytotoxicity
- percentage of U-87 cell death ([4]; acidic pH adjusted with sodium acetate buffer, versus HCl): even higher
- cytotoxic effect on U-87 MG cells ([4]; pH 6.2 set with 1M HCl, versus physiological pH): significantly higher
- cytotoxic effect on U-87 MG cells ([4]; physiological pH): no cytotoxic effect
- caspase 3/7 activity ([8]; pH 6.4, 24 h, proliferating and quiescent TG1 cells): stimulates caspase 3/7 activity in a dose-dependent manner
- pro-apoptotic effect (caspase 3/7 activity) ([8]; physiological pH (pH 7.3), 24 h): not observed
- survival of proliferating TG1 cells ([5]; 10 μM, 24 h, acidic medium (HCl)): also decreased
- effect on proliferating TG1 cells [5, 10]: more pronounced
- survival of TG1 glioblastoma cancer stem cells (ATP level) ([5]; NS34 medium pH 7.35 or 6.2, 24 or 72 h, Example 13): decreases the survival
- effect on survival of proliferating TG1 cells ([5]; 24 h): a little more marked
- effect on survival of proliferating TG1 cells ([5]; 24 h, listed as DDPM): minor effect
- cytotoxic activity on proliferating TG1 cells after media exchange ([5]; treated 24 h in conditioned quiescent cell medium, versus own medium): more pronounced cytotoxic activity
- change in concentration in the culture media (stability) ([6]; proliferating and quiescent culture medium, up to 24 h): No change
- effect on quiescent TG1 cells after media exchange [9]: significantly reduced

Source: patent US20140186872A1, “BISACODYL AND ITS ANALOGUES AS DRUGS FOR USE IN THE TREATMENT OF CANCER” (CENTRE NATIONAL DE LA RECHERCHE SCIENTIFIQUE- CNRS, priority 2011, published 2014)
